Holding throughout (type): cell-based
The subject of one data set is Coxsackie virus B3. Briefly: Cell protection assay, Coxsackie virus B3 in Vero cells. The following applies: for IC50: Enterovirus B, B3, Vero, 72 h; for SI (selectivity index): ratio of CC50 to IC50, Coxsackie virus B3, Vero cell line.
Data set [1] is described as follows: Toxicity studies, microtetrazolium test. The conditions noted are these: dog, MDCK cells (ATCC CCL-34).
Data set [2] deals with Influenza virus A/Puerto Rico/8/34 (H1N1). The following applies: ratio of CC50 to IC50, MDCK cell line.

These results are taken from paper PMC7547832 (Journal of Fluorine Chemistry, 2020).

For orientation: IC50 means the concentration needed to halve the response being measured. The low end stands for greater potency, the high end for weaker potency. One may read the CC50 as the concentration that lowers cell viability or growth by half. Higher therefore signals better tolerance by the cells. `COC(=O)c1c(-c2ccc(OC)c(OC)c2)oc2c(F)c(F)c(F)cc2c1=O` [Compound 5а, Methyl 6,7,8-trifluoro-2-(3,4-dimethoxyphenyl)-4-oxo-4H-chromene-3-carboxylate] showed a concentration for half-maximal inhibition (IC50) in the data set on Coxsackie virus B3 of 635 ± 42 µM. This compound also yielded a cytotoxic concentration (CC50) at 48 h in data set [1] of 508 ± 32 µM. Besides, the “SI (selectivity index)” value in data set [2] turned out to be 16.

The compound `COC(=O)c1c(-c2ccc(OC)c(OC)c2)oc2c(F)c(F)c(F)c(F)c2c1=O` [Compound 4a, Methyl 5,6,7,8-tetrafluoro-2-(3,4-dimethoxyphenyl)-4-oxo-4H-chromene-3-carboxylate] came in with an IC50 in the data set with Coxsackie virus B3 of over 61 µM. Further, it took 109 ± 8 µM to reach half-maximal cytotoxicity in data set [1] (CC50 at 48 h). In data set [2], the “SI (selectivity index)” value was 2.

Turning to `COC(=O)c1c(-c2ccc(OC)c(OC)c2)oc2c(F)c(-n3ccnc3)c(F)cc2c1=O` [Compound 7а, Methyl 6,8-difluoro-2-(3,4-dimethoxyphenyl)-7-(1H-imidazol-1-yl)-4-oxo-4H-chromene-3-carboxylate], the 50% inhibitory concentration (IC50) with Coxsackie virus B3 was over 226 µM. The same compound showed a CC50 at 48 h in data set [1] of over 679 µM.

Take `COC(=O)c1c(-c2ccc(OC)cc2)oc2c(F)c(-n3ccnc3)c(F)c(O)c2c1=O` [Compound 8b, Methyl 6,8-difluoro-5-hydroxy-7-(1H-imidazol-1-yl)-2-(4-methoxyphenyl)-4-oxo-4H-chromene-3-carboxylate]: half-maximal cytotoxicity in data set [1] (CC50 at 48 h) was put at 629 ± 41 µM. The “SI (selectivity index)” value in data set [2] amounted to 16.

With `NC(=O)c1ncn([C@@H]2O[C@H](CO)[C@@H](O)[C@H]2O)n1` [ribavirin, reference compound], in the data set on Coxsackie virus B3, inhibition was half-maximal at 34 ± 4 µM (IC50) and the “SI (selectivity index)” value was over 63. Moreover, in data set [1], the CC50 at 48 h is over 2130 µM.

Regarding `COc1ccc(-c2cc(=O)c3c(F)c(F)c(-n4ccnc4)c(F)c3o2)cc1OC` [Compound 13, 5,6,8-Trifluoro-2-(3,4-dimethoxyphenyl)-7-(1H-imidazol-1-yl)-4H-chromene-4-one], in the data set with Coxsackie virus B3, it took 29 ± 4 µM to reach half-maximal inhibition (IC50) and the “SI (selectivity index)” value is 26. The “antiviral properties against the Coxsackie virus B3 (in words)” value in the data set with Coxsackie virus B3 (Vero cell culture) is reported as “demonstrated antiviral properties against the Coxsackie virus B3”. Besides, in data set [1], the CC50 at 48 h is over 746 µM.

Consider `COC(=O)c1c(-c2ccc(OC)c(OC)c2)oc2c(F)c(-n3ccnc3)c(F)c(F)c2c1=O` [Compound 6a, Methyl 5,6,8-trifluoro-2-(3,4-dimethoxyphenyl)-7-(1H-imidazol-1-yl)-4-oxo-4H-chromene-3-carboxylate], for which the IC50 with Coxsackie virus B3 is over 65 µM. This compound also registered a CC50 at 48 h in data set [1] of 61 ± 4 µM. Besides, in data set [2], the “SI (selectivity index)” value was 5.
